Assays:
Type in all cases: cell-based
E. coli J3272 Tet C = assay: microbe, parasite or virus in culture; conditions: Escherichia coli, J3272TETC, 18 h
[1] = tested on: S. aureus UBMS 90-2 Tet M; assay: microbe, parasite or virus in culture; conditions: Staphylococcus aureus, UBMS902TETM, 18 h, 18 hours at 35° C.
[2] = tested on: E. coli MC 4100 TNIOC Tet B; assay: microbe, parasite or virus in culture; conditions: Escherichia coli, 18 h, 18 hours at 35° C.
E. coli UBMS 90-5 sens = assay: MIC, agar dilution method; conditions: Escherichia coli, UBMS905SENS, 18 hours at 35° C., read-out: MIC
[3] = tested on: S. aureus UBMS 88-5 Tet M; assay: microbe, parasite or virus in culture; conditions: Staphylococcus aureus, UBMS885TETM, 18 h
S. aureus UBMS 88-4 = assay: MIC, agar dilution method; conditions: Staphylococcus aureus, UBMS884, 18 hours at 35° C., read-out: MIC
E. coli ATCC 25922 = assay: MIC, agar dilution method; conditions: Escherichia coli, ATCC25922, 18 hours at 35° C., read-out: MIC
Enterococcus 12201 = assay: MIC, agar dilution method; conditions: 18 hours at 35° C.
[4] = tested on: S. hemolyticus AVHAH 88-3; assay: MIC, agar dilution method; conditions: Streptococcus pyogenes, AVHAH883, 18 h, 18 hours at 35° C.
E. coli J3272 Tet sens = assay: MIC, agar dilution method; conditions: Escherichia coli, J3272TETSENS, 18 hours at 35° C.
E. coli J2175 = assay: MIC, agar dilution method; conditions: Escherichia coli, 18 hours at 35° C., read-out: MIC
E. coli UBMS 89-1 Tet M = assay: microbe, parasite or virus in culture; conditions: Escherichia coli, UBMS891TETM, 18 h, 18 hours at 35° C.
E. coli UBMS 90-4 Tet M = assay: microbe, parasite or virus in culture; conditions: Escherichia coli, UBMS904TETM, 18 h, 18 hours at 35° C.
[5] = tested on: S. aureus UBMS 88-7 Tet K; assay: microbe, parasite or virus in culture; conditions: 18 hours at 35° C.
[6] = tested on: E. coli UBMS 89-2 Tet sens; assay: MIC, agar dilution method; conditions: Escherichia coli, UBMS892TETSENS, 18 h, 18 hours at 35° C., read-out: MIC
E. coli PRP1 Tet A = assay: microbe, parasite or virus in culture; conditions: Escherichia coli, PRP1TETA, 18 h, 18 hours at 35° C.
E. coli J3272 Tet D = assay: microbe, parasite or virus in culture; conditions: Escherichia coli, J3272TETD, 18 h
E. faecalis ATCC 29212 = assay: MIC, agar dilution method; conditions: Enterococcus faecalis, ATCC29212, 18 hours at 35° C., read-out: MIC
S. aureus IVES 1 983 = assay: MIC, agar dilution method; conditions: Staphylococcus aureus, IVES1983, 18 h
E. coli #311 (MP) = assay: MIC, agar dilution method; conditions: Escherichia coli, 18 hours at 35° C., read-out: MIC
S. aureus UBMS 90-3 = assay: MIC, agar dilution method; conditions: Staphylococcus aureus, UBMS903; S. aureus UBMS 90-3; 18 hours at 35° C.; read-out: MIC
S. aureus ROSE (MP) = assay: MIC, agar dilution method; conditions: 18 hours at 35° C.
S. aureus ATCC 29213 = assay: MIC, agar dilution method; conditions: 18 hours at 35° C.
[7] = tested on: X. maltophilia NEMC 87210; assay: MIC, agar dilution method; conditions: Stenotrophomonas maltophilia, NEMC87210, 18 h, 18 hours at 35° C.
[8] = tested on: Ps. acruginosa ATCC 27853; assay: MIC, agar dilution method; conditions: Ps. acruginosa ATCC 27853; 18 hours at 35° C.; read-out: MIC
S. aureus SMITH (MP) = assay: MIC, agar dilution method; conditions: 18 hours at 35° C.
S. mariescens FPOR 8733 = assay: MIC, agar dilution method; conditions: 18 h, 18 hours at 35° C.
S. aureus IVES 2943 = assay: MIC, agar dilution method; conditions: Staphylococcus aureus, IVES2943, 18 h
E. coli BAJ9003 IMP MUT = assay: microbe, parasite or virus in culture; conditions: 18 hours at 35° C.
E. coli UBMS 88-1 Tet B = assay: microbe, parasite or virus in culture; conditions: Escherichia coli, UBMS881TETB, 18 h, 18 hours at 35° C.
[9] = tested on: S. aureus UBMS 90-1 Tet M; assay: microbe, parasite or virus in culture; conditions: 18 hours at 35° C.
S. aureus NEMC 8769 = assay: MIC, agar dilution method; conditions: Staphylococcus aureus, NEMC8769, 18 h, S. aureus NEMC 8769; 18 hours at 35° C.

Structure (SMILES): CN(C)CC(=O)Nc1c(Cl)cc2c(c1O)C(=O)C1=C(O)[C@]3(O)C(=O)C(C(N)=O)=C(O)[C@@H](N(C)C)C3CC1C2 (stereo partly drawn) [A, [4S-(4α,12aα)]-8-Chloro-4-(dimethylamino)-9-[[(dimethylamino)acetyl]amino]-1,4,4a,5,5a,6,11,12a-octahydro-3,10,12,12a-tetrahydroxy-1,11-dioxo-2-naphthacenecarboxamide disulfate]
- MIC (E. coli J3272 Tet C): 8 µg/mL
- MIC [1]: 0.5 µg/mL
- MIC [2]: 2 µg/mL
- MIC (E. coli UBMS 90-5 sens): 1 µg/mL
- MIC [3]: 0.25 µg/mL
- MIC (S. aureus UBMS 88-4): 0.12 µg/mL
- MIC (E. coli ATCC 25922): 0.5 µg/mL
- MIC (Enterococcus 12201): 0.25 µg/mL
- MIC [4]: 1 µg/mL
- MIC (E. coli J3272 Tet sens): 1 µg/mL
- MIC (E. coli J2175): 1 µg/mL
- MIC (E. coli UBMS 89-1 Tet M): 0.5 µg/mL
- MIC (E. coli UBMS 90-4 Tet M): 1 µg/mL
- MIC [5]: 2 µg/mL
- MIC [6]: 2 µg/mL
- MIC (E. coli PRP1 Tet A): 4 µg/mL
- MIC (E. coli J3272 Tet D): 0.5 µg/mL
- MIC (E. faecalis ATCC 29212): 0.12 µg/mL
- MIC (S. aureus IVES 1 983): 4 µg/mL
- MIC (E. coli #311 (MP)): 0.5 µg/mL
- MIC (S. aureus UBMS 90-3): 0.12 µg/mL
- MIC (S. aureus ROSE (MP)): 16 µg/mL
- MIC (S. aureus ATCC 29213): 0.03 µg/mL
- MIC [7]: 2 µg/mL
- MIC [8]: > 32 µg/mL
- MIC (S. aureus SMITH (MP)): 0.25 µg/mL
- MIC (S. mariescens FPOR 8733): 16 µg/mL
- MIC (S. aureus IVES 2943): 4 µg/mL
- MIC (E. coli BAJ9003 IMP MUT): 0.25 µg/mL
- MIC (E. coli UBMS 88-1 Tet B): 2 µg/mL
- MIC [9]: 0.5 µg/mL
- MIC (S. aureus NEMC 8769): 0.06 µg/mL

— patent publication US5495032A, “Process for producing 7-(substituted)-8-(substituted-9-[(substituted glycyl)amido]-6-demethyl-6-deoxytetracyclines” (priority 1994, dated 1996)
